Measurements: patent publication US4456614A, “3-Amino-1-[(1,4-benzodioxan)-2-yl-methoxy]-2-propanols, pharmaceutical compositions thereof, and their use as medicaments” (Pierre Fabre S.A., priority 1980, dated 1984)
Where a name gives a salt, the structure may show the parent alone.

How the values were obtained:
[1] = tested on: isolated atrium (rabbit right atrium); experiment: Effect on the frequency of spontaneous flutterings of the isolated atrium; details: for inhibition at 10 µg/mL: Oryctolagus cuniculus, 0.4 h, after 24 minutes, 1 mg (per 100 ml), read-out: Percentage of reduction of the frequency
Protocol: (c) Effect on the frequency of spontaneous flutterings of the isolated atrium. Method: Rabbit right atrium in survival in a Ringer-Locke's solution. The substances to be studied are introduced into the tank (at the rate of 0.5 and 1 mg per 100 ml) and remain in contact with the myocardial tissue for 24 minutes.

[2] = tested on: auricular tachycardia produced by aconitine; experiment: Auricular tachycardia produced by aconitine in dogs; format: in vivo; details: 5 mg/kg
Text: (b) Influence on an auricular tachycardia produced by aconitine.
Method: (D. SCHERF--Proc. Soc. exp. Biol., 1947, 64, 233). A tachycardia is caused in dogs by intramural injection of aconitine in the right atrium near the sinusoidal node.
The rhythm is increased in proportions of 80 to 100%. The auriculo-ventricular tracks show normal permeability, the ventricles are driven at the same frequency.

[3] = tested on: cardiovascular system; experiment: Systemic effects in dogs; format: in vivo; details: 1, 2 and 5 mg/kg
Protocol: (3) Systemic effects in dogs
Doses used: 1, 2 and 5 mg/kg
left intraventricular pressure

[4] = tested on: ventricular tachycardia of digitalic origin; experiment: Ventricular tachycardia of digitalic origin (ouabain) in anesthetized dogs; format: in vivo; details: doses of 2 and 5 mg/kg
Text: (a) Action with respect to ventricular tachycardia of digitalic origin (LUCHESI and HARDMAN--J. Pharmacol. exp. Ther., 1961, No. 132, pages 372 to 81).
Method: Creation of a stable ventricular tachycardia in ten dogs (anesthetized) by successive intravenous injections of ouabain.

[5] = tested on: adrenergic receptors; experiment: Inhibitory property of the adrenergic receptors (isoprenaline tachycardia in dogs); format: in vivo
Text: (2) Search for an inhibitory property of the adrenergic receptors
Method: Isoprenaline tachycardia in dogs. Simultaneous recording of the heart rate and of the arterial pressure.

[6] = tested on: toxicity to yohimbine; experiment: Anti-depressant properties (potentialization of yohimbine toxicity in mice); format: in vivo
Text: Anti-depressant properties (W. J. LANG and S. GORSHORN Arch. Int. Pharmacodyn., 142, 457, 1963).

[7] = tested on: isolated rabbit atrium; experiment: Activity on the electrosystolic entrainment of the isolated rabbit atrium; details: isolated rabbit right atrium, Ringer-Locke's solution
Protocol: (d) Activity on the electrosystolic entrainment of the isolated rabbit atrium (G. S. DAWES--Pharmacol. Rev., 4, 43-84, 1952).
Method: Rabbit right atrium in a Ringer-Locke's solution.
After determination of the threshold voltage for the entrainment of the muscle, the latter is subjected to frequencies which increase in successive steps until obtaining a maximum frequency for which the tissue is incapable of responding to the stimuli.
The product is added to the bath. Three electric entrainments are effected in the following 25 minutes. The experiment is then continued for one hour after the rinsing of the tank.

[8] = tested on: central nervous system; experiment: Potentialization of the barbiturate and chloralhydrate anesthesia in mice; format: in vivo; details: 100 mg/kg
Text: Potentialization of the barbiturate and chloralhydrate anesthesia in mice.

[9] = tested on: toxicity of pentetrazole; experiment: Anticonvulsant property (pentetrazole toxicity in mice); format: in vivo; details: orally, 100 mg/kg, pentetrazole subcutaneously
Text: Anticonvulsant property (G. CHEN and R. PORTMAN, A.M.A. Arch. Neurol. Psychiat., 68, 498, 1952).

[10] = tested on: Local anesthesia; experiment: Local anesthesia (test of J. Regnier); format: in vivo; details: 1% solution
Text: Local anesthesia: test of J. Regnier--Doctoral Dissertation, Med., 203 pages, Bruilliard St Dizier, 1929.

[11] = tested on: Urinary excretion; experiment: Diuretic effect in rats (Lipschitz); format: in vivo; details: 100 mg/kg orally
Text: Diuretic effect (W. LIPSCHITZ J. Pharmacol. Exp. Ther., 79, 97, 1943) in rats.

[12] = Solubility in water; format: physicochemical

SMILES: CCC1CN2CCC1CC2[C@@H](O)c1ccnc2ccc(OC)cc12 (stereo partly shown) [Dihydroquinidine, reference compound]
- inhibition at 10 µg/mL [1]: 35%

SMILES: CC(C)(C)NCC(O)COCC1COc2ccccc2O1 (stereo not shown) [Example 1, 3-tertiobutylamino-1-[(1,4-benzodioxan)-2-ylmethoxy]-2-propanol maleate]
- % reduction of auricular tachycardia [2]: 60%
- effect on auricular tachycardia [2]: reduces auricular tachycardia substantially and lastingly
- persistence of the effect after injection [2]: 30 min
- force of cardiac contraction [3]: decreases the force of cardiac contraction
- impact on the cardiovascular system [3]: little impact on the cardiovascular system
- peripheral resistances [3]: decreases the force of cardiac contraction and the peripheral resistances
- opposition of ectopic rhythm ([4]; ten dogs, ouabain): opposes ectopic rhythm in all the animals
- period of activity ([4]; in 80% of the cases): more than 30 minutes
- beta-blocking effect ([5]; 5 mg/kg): substantial
- cardioselectivity ([5]; 5 mg/kg): cardioselectivity is noted
- reduction of isoprenaline tachycardia ([5]; from 1 mg/kg intravenously): significantly reduces the isoprenaline tachycardia starting with a dose of 1 mg/kg intravenously
- potentialization of toxicity to yohimbine [6]: No potentialization of toxicity to yohimbine
- functional refractory period of the isolated atrium [7]: extends the functional refractory period of the isolated atrium in the same way as dihydroquinidine
- Potentialization of the barbiturate and chloralhydrate anesthesia [8]: nothing to report
- inhibition at 10 µg/mL [1]: 16%
- chronotropic effect compared with dihydroquinidine ([1]; isolated rabbit right atrium, Ringer-Locke's solution): definitely a less negative chronotropic effect than dihydroquinidine
- protection from toxicity of pentetrazole [9]: does not protect mice from toxicity of pentetrazole
- local anesthetic properties compared with Lidocaine [10]: local anesthetic properties superior to Lidocaine
- diuretic power [11]: does not have any diuretic power
- Urinary excretion ([11]; Control 28%): 35%
- solubility [12]: 100 mg/mL
